The melting point is the temperature of the solid-liquid transition.

With `Cl.N=C(N)c1ccc(C2CC3CCC2N3)cc1` (centres unmarked), the melting point was in the range of 198.5 to 201 °C.
The value for `Cl.Oc1ccc(C2CC3CCC2N3)cc1` (centres unmarked) was 242.5 to 244 °C.
The value for `CSc1ccc(C2CC3CCC2N3)cc1.Cl` (centres unmarked) was 216.5 to 218 °C; that for `COC(=O)c1ccc(C2CC3CCC2N3)cc1.Cl` (centres unmarked) was 235 to 236 °C.
As for `Cl.O=C(O)c1ccc(C2CC3CCC2N3)cc1` (centres unmarked), the figure is 261.5 to 264.5 °C.
